Calls of active or inactive are those of the source. The calls are words filed in the database; no cut-off is given here.
Assays:
ECV-304 [1] = experiment: Membrane permeabilization effect on human ECV304 cells assessed as induction of membrane lysis at 48 uM after 1 hr; format: functional, cell-based
ECV-304 [2] = experiment: Membrane permeabilization effect on lysosome of human ECV304 cells assessed as induction of membrane lysis up to 6 uM after 1 hr by N-Acetylglucosaminidase release assay; format: functional, cell-based
ECV-304 [3] = experiment: Membrane permeabilization effect on human ECV304 cells at 3 uM measured every 15 secs for 3 hrs by real time impedance-based plate reader analysis; format: functional, cell-based
[4] = Hemolytic activity against human RBC at 6 uM after 30 mins relative to control; format: ADME, cell-based, Erythrocyte; settings: red blood cells (RBC), read-out: Activity
[5] = Hemolytic activity against human RBC at 3 uM after 30 mins relative to control; format: ADME, cell-based, Erythrocyte; settings: red blood cells (RBC), read-out: Activity
[6] = Hemolytic activity against human RBC at 12 uM after 30 mins relative to control; format: ADME, cell-based, Erythrocyte; settings: red blood cells (RBC), read-out: Activity
ECV-304 [7] = experiment: Membrane permeabilization effect on human ECV304 cells assessed as increase in propidium iodide uptake at 24 uM after 1 hr by FACS flow cytometric analysis; format: functional, cell-based
ECV-304 [8] = experiment: Membrane permeabilization effect on lysosome of human ECV304 cells at 6 to 48 uM after 1 hr by N-Acetylglucosaminidase release assay; format: functional, cell-based
ECV-304 [9] = experiment: Cytotoxicity against human ECV304 cells at 24 uM after 3 hrs; format: cell-based; settings: ecv-304, 3 h
[10] = Hemolytic activity against human RBC at 24 uM after 30 mins relative to control; format: ADME, cell-based, Erythrocyte; settings: erythrocyte, 0.5 h, 24 µM
ECV-304 [11] = experiment: Membrane permeabilization effect on human ECV304 cells assessed as normalized cell index at 24 uM measured every 15 secs for 3 hrs by real time impedance-based plate reader analysis relative to control; format: functional
ECV-304 [12] = experiment: Membrane permeabilization effect on human ECV304 cells assessed as normalized cell index at 12 uM measured every 15 secs for 3 hrs by real time impedance-based plate reader analysis relative to control; format: functional
ECV-304 [13] = experiment: Membrane permeabilization effect on human ECV304 cells assessed as normalized cell index at 24 uM measured every 15 secs for 3 hrs by real time impedance-based plate reader analysis relative to control relative to control; format: functional
ECV-304 [14] = experiment: Membrane permeabilization effect on human ECV304 cells at 3 to 24 uM measured every 15 secs for 3 hrs by real time impedance-based plate reader analysis; format: functional, cell-based
ECV-304 [15] = experiment: Membrane permeabilization effect on human ECV304 cells assessed as propidium iodide uptake up to 48 uM after 1 hr by FACS flow cytometric analysis; format: functional, cell-based
ECV-304 [16] = experiment: Membrane permeabilization effect on lysosome of human ECV304 cells up to 48 uM after 1 hr by N-Acetylglucosaminidase release assay; format: functional, cell-based
[17] = Hemolytic activity against human RBC at 1.5 to 48 uM after 30 mins; format: ADME, cell-based; settings: erythrocyte, 0.5 h
ECV-304 [18] = experiment: Membrane permeabilization effect on human ECV304 cells at 3 to 6 uM measured every 15 secs for 3 hrs by real time impedance-based plate reader analysis; format: functional, cell-based
ECV-304 [19] = experiment: Membrane permeabilization effect on human ECV304 cells assessed as propidium iodide uptake at 3 to 48 uM after 1 hr by FACS flow cytometric analysis; format: functional, cell-based
ECV-304 [20] = experiment: Membrane permeabilization on human ECV304 cells at 24 uM measured every 15 secs for 3 hrs by real time impedance-based plate reader analysis; format: functional, cell-based
ECV-304 [21] = experiment: Membrane permeabilization effect on lysosome of human ECV304 cells assessed as induction of membrane lysis at 3 to 48 uM after 1 hr by N-Acetylglucosaminidase release assay; format: functional, cell-based

## C[C@@H]1CC[C@@]2(OC1)O[C@H]1[C@@H](O)[C@H]3[C@@H]4CC[C@H]5C[C@@H](O[C@@H]6O[C@H](CO)[C@H](O[C@@H]7O[C@H](CO)C(O)[C@H](O[C@@H]8OC[C@@H](O)[C@H](O)[C@H]8O)[C@H]7O[C@@H]7O[C@H](CO)[C@H](O)[C@H](O[C@@H]8O[C@H](CO)[C@@H](O)[C@H](O)[C@H]8O)[C@H]7O)[C@H](O)[C@H]6O)[C@H](O)C[C@]5(C)[C@H]4CC[C@]3(C)[C@H]1[C@@H]2C (stereo not given in full) [DIGITONIN]
ECV-304 [1]
  Activity: Active
ECV-304 [2]
  Activity: inactive
ECV-304 [3]
  Activity: Active
[4]
  hemolysis at 0.5 h, 6 µM: 68%
[5]
  hemolysis at 0.5 h, 3 µM: 22%
[6]
  hemolysis at 0.5 h, 12 µM: > 80%
ECV-304 [7]
  Activity: Active
ECV-304 [8]
  Activity: Active

## CCC(C)C(CC(O)CC(=O)O[C@H]1[C@@H](O)[C@@H](C)O[C@@H](OC(=O)[C@]23CCC(C)(C)C[C@H]2C2=CC[C@@H]4[C@@]5(C)CC[C@H](O[C@H]6O[C@H](C(=O)O)[C@@H](O)[C@H](O[C@@H]7OC[C@@H](O)[C@H](O)[C@H]7O)[C@H]6O[C@@H]6O[C@H](CO)[C@H](O)[C@H](O)[C@H]6O)[C@@](C)(C=O)[C@@H]5CC[C@@]4(C)[C@]2(C)C[C@H]3O)[C@@H]1O[C@@H]1O[C@@H](C)[C@H](O[C@@H]2OC[C@@H](O)[C@H](O[C@@H]3OCC(O)(O)[C@H]3O)[C@H]2O)[C@@H](O[C@@H]2O[C@H](CO)[C@@H](O)[C@H](O)[C@H]2O)[C@H]1O)OC(=O)CC(O)CC(O[C@@H]1O[C@@H](CO)[C@H](O)[C@H]1O[C@@H]1O[C@@H](C)[C@H](O)[C@@H](O)[C@H]1O)C(C)CC (stereo in doubt; form 1)
ECV-304 [9]
  Activity: Toxic
[10]
  Activity: Toxic
[4]
  hemolysis at 0.5 h, 6 µM: 27%
[6]
  hemolysis at 0.5 h, 12 µM: 67%
ECV-304 [11]
  fold change (FC): 0.1

## CC1(C)[C@@H](O[C@H]2O[C@H](C(=O)O)[C@@H](O)[C@H](O)[C@H]2O[C@@H]2O[C@H](C(=O)O)[C@@H](O)[C@H](O)[C@H]2O)CC[C@]2(C)[C@H]3C(=O)C=C4[C@@H]5C[C@@](C)(C(=O)O)CC[C@]5(C)CC[C@@]4(C)[C@]3(C)CC[C@@H]12 [GLYCYRRHIZIN]
ECV-304 [12]
  Activity: inactive
ECV-304 [13]
  Activity: inactive
ECV-304 [14]
  Activity: inactive
ECV-304 [15]
  Activity: inactive
ECV-304 [16]
  Activity: inactive
[17]
  Activity: Non-toxic
ECV-304 [2]
  Activity: inactive
ECV-304 [18]
  Activity: inactive

## CCC(C)C(CC(O)CC(=O)O[C@H]1[C@@H](O)[C@@H](C)O[C@@H](OC(=O)[C@]23CCC(C)(C)C[C@H]2C2=CC[C@@H]4[C@@]5(C)CC[C@H](O[C@H]6O[C@H](C(=O)O)[C@@H](O)[C@H](O[C@@H]7OC[C@@H](O)[C@H](O)[C@H]7O)[C@H]6O[C@@H]6O[C@H](CO)[C@H](O)[C@H](O)[C@H]6O)[C@@](C)(C=O)[C@@H]5CC[C@@]4(C)[C@]2(C)C[C@H]3O)[C@@H]1O[C@@H]1O[C@@H](C)[C@H](O[C@@H]2OC[C@@H](O)[C@H](O[C@@H]3OCC(O)(O)[C@H]3O)[C@H]2O)[C@@H](O[C@@H]2O[C@H](CO)[C@@H](O)[C@H](O)[C@H]2O)[C@H]1O)OC(=O)CC(O)CC(O[C@@H]1O[C@@H](CO)[C@H](O)[C@H]1O[C@@H]1O[C@@H](C)[C@H](O)[C@@H](O)[C@H]1O)C(C)CC (stereo in doubt; form 2)
ECV-304 [19]
  Activity: inactive
ECV-304 [2]
  Activity: inactive
ECV-304 [20]
  Activity: inactive
ECV-304 [21]
  Activity: inactive
